The subject of experiment [1] is test panelists. The experiment can be described thus: Round table qualitative assessment of quality of sweetness and undesirable attributes, scale of 1-10. Format: in vivo. The settings on record: for Quality of sweetness (higher better): scale 1-10, 10 = 5% sucrose, 1 = 500 ppm RebA; for Off taste (lower better): scale 1-10, 10 = 500 ppm RebA, 1 = 5% sucrose. The method, then:
Round table evaluations were performed with 7 test panelists. Equal sweet 5 SEV concentrations in neutral pH water were made for Thaumatin II (purity greater than 90%), Rebaudioside A, and Rebaudioside M. These equal sweet solutions were also mixed at 50% of Thaumatin II and 50% Reb M or RebA and compared to the individual components. All solutions were coded and blinded from panelists. Panelists were asked to provide a qualitative assessment on a scale of 1-10 of the quality of sweetness (10 being the highest quality of sweetness) and undesirable attributes (10 being most undesirable) of each solution using a 5% sucrose and 500 ppm RebA solutions as controls. For the quality of sweetness, the score 10 was assigned to 5% sucrose. Vice versa, the score 1 was assigned to and 500 ppm RebA. For undesirable attributes, the scores 10 and 1 were assigned to 500 ppm RebA and 5% sucrose, respectively.

Experiment [2] relates to test panelists. Kind of experiment: Round table evaluation of sweetness intensity (SEV) against sucrose reference samples. Format: in vivo. The settings on record: 7 panelists, mean. How it is done:
Round table evaluations were performed with 7 test panelists. Equal sweet 5 SEV concentrations in neutral pH water were made for Thaumatin II (purity greater than 90%), Rebaudioside A, and Rebaudioside M. These equal sweet solutions were also mixed at 50% of Thaumatin II and 50% Reb M or RebA and compared to the individual components. The components of the test compositions are described in the below tables. The mixed compositions were calculated using the Beidler mixture equation for the sweeteners. The Beidler mixture equation for sweeteners is as follows: [formula] The concentration of each component in the mixture in ppm is divided by SEV (c/R) and is plotted against concentration, c. The slope of the linear regression is the maximum SEV (Rmax). The y-intercept of the linear regression multiplied by Rmax is the half-maximal sweetness concentration, 1/K. Rmax and 1/K are the two parameters used in the Beidler equation. Mixtures were tasted in comparison to reference samples for the panelists to determine SEV values. References samples were 3%, 4%, 5%, 6%, 7%, and 8% sucrose in neutral pH water. The test samples were served in 2 ounce soufflé cups (approximately 60 ml) coded with 3-digit codes at room temperature. A two minute wait period between samples was enforced. Water and unsalted crackers was available for the panelists to clear their palates before and during testing. Results were collected for calculating approximate SEV level of each test sample.

Consider `C=C1C[C@@]23CC[C@H]4[C@@](C)(CCC[C@@]4(C)C(=O)O[C@@H]4O[C@H](CO)[C@@H](O)[C@H](O)[C@H]4O)[C@@H]2CC[C@]1(O[C@@H]1O[C@H](CO)[C@@H](O)[C@H](O[C@@H]2O[C@H](CO)[C@@H](O)[C@H](O)[C@H]2O)[C@H]1O[C@@H]1O[C@H](CO)[C@@H](O)[C@H](O)[C@H]1O)C3` [Rebaudioside A], for which, in the experiment on test panelists [1] (260 ppm in neutral pH water), the “Quality of sweetness (higher better)” value stood at 5.6 and the “Off taste (lower better)” value is given as 6.7. Besides, the “Sweetness intensity determined, SEV” value in the experiment with test panelists [2] (260 ppm in neutral pH water) stood at 4.8 SEV.

As to `C=C1C[C@@]23CC[C@H]4[C@@](C)(CCC[C@@]4(C)C(=O)O[C@@H]4O[C@H](CO)[C@@H](O)[C@H](O[C@@H]5O[C@H](CO)[C@@H](O)[C@H](O)[C@H]5O)[C@H]4O[C@@H]4O[C@H](CO)[C@@H](O)[C@H](O)[C@H]4O)[C@@H]2CC[C@]1(O[C@@H]1O[C@H](CO)[C@@H](O)[C@H](O[C@@H]2O[C@H](CO)[C@@H](O)[C@H](O)[C@H]2O)[C@H]1O[C@@H]1O[C@H](CO)[C@@H](O)[C@H](O)[C@H]1O)C3` [Rebaudioside M], in the experiment on test panelists [1] (155 ppm in neutral pH water), the “Quality of sweetness (higher better)” value is 8.8 and the “Off taste (lower better)” value came out at 2.5. The “Quality of sweetness and off taste, in words” value in the experiment on test panelists [1] (equal sweet 5 SEV solutions and their 50%/50% mixtures in neutral pH water) was “very mild artificial off taste”. Besides, the “Sweetness intensity determined, SEV” value in the experiment on test panelists [2] (155 ppm in neutral pH water) was 5.3 SEV.

B1: Thaumatin II: oligopeptide or protein of SEQ ID NO: 2; recombinant, purity greater than 90%, purified from transgenic Nicotiana tabacum plants (protein, listed as Thaumatococcus daniellii)
chain: ATFEIVNRCSYTVWAAASKGDAALDAGGRQLNSGESWTINVEPGTKGGKIWARTDCYFDDSGRGICRTGDCGGLLQCKRFGRPPTTLAEFSLNQYGKDYIDISNIKGFNVPMDFSPTTRGCRGVRCAADIVGQCPAKLKAPGGGCNDACTVFQTSEYCCTTGKCGPTEYSRFFKRLCPDAFSYVLDKPTTVTCPGSSNYRVTFCPTA
In the case of B1, in the experiment with test panelists [1] (7 ppm in neutral pH water), the “Quality of sweetness (higher better)” value stood at 6.5 and the “Off taste (lower better)” value came to 4.7. In addition, the “Sweetness intensity determined, SEV” value in the experiment on test panelists [2] (7 ppm in neutral pH water) stood at 4.6 SEV.
